Results reported in paper PMC7531601, “Exploiting Lactoferricin (17–30) as a Potential Antimicrobial and Antibiofilm Candidate Against Multi-Drug-Resistant Enteroaggregative Escherichia coli” (Frontiers in Microbiology, 2020).
Where two headings read alike, the source gives them in different places. Ends that are not written are not given here.

How the values were obtained:
[1] = system: G. mellonella larvae infected with MDR-EAEC (a cocktail of three strains); assay: G. mellonella larval survival; format: in vivo, Galleria mellonella; details: uninfected larvae, MIC dose, up to 120 h pi
Description: The final instar of G. mellonella larvae was utilized for performing the in vivo assays ([Morgan et al., 2014]). The larvae (ca. 200–250 mg) inoculated with aliquots of MDR-EAEC suspensions (10 μl) by injection using Hamilton syringe (26 gauge) via the last right pro-leg were incubated at 37°C and the observations were noted. The larvae kept in a sterile environment were provided with ad lib food during the experiment.
The determined LD50 dose for each MDR-EAEC strain in the larvae was validated and employed further in the in vivo experiments to evaluate the antibacterial efficacy of Lfcin (17–30).
Galleria mellonella larvae were grouped 40 per group for in vivo antimicrobial testing of Lfcin (17–30) as follows: group I (MDR-EAEC infection control), groups II and III (infection + treatment groups), group IV (PBS control), and group V [Lfcin(17–30) control]. Optimized LD50 dose of MDR-EAEC (a cocktail of three strains) was administered to larvae of groups I to III, while MIC dose of Lfcin (17–30) and Meropenem was administered 3 h post-infection (pi) in groups II and III, respectively. Larval group IV was injected with sterile PBS, whereas MIC dose of Lfcin (17–30) was administered in group V. […]

[2] = system: preformed (48 h) MDR-EAEC biofilm; details: preformed (48 h) biofilm of MDR-EAEC strains
Description: The MBEC of Lfcin (17–30) was determined against the preformed (48 h) MDR-EAEC biofilm ([Ceri et al., 1999]). MBEC value is the lowest concentration of Lfcin (17–30) that prevented the MDR-EAEC re-growth. This MBEC value of Lfcin (17–30) was further used to study the eradication of biofilm formed by MDR-EAEC strains.

[3] = system: L. acidophilus MTCC 10307; details: 1X MIC, MRS broth, 37°C, 48 h, absorbance 600 nm and plating
Description: (§1) Initially, characterization of Lfcin (17–30) was performed by determining its minimum inhibitory concentration (MIC), minimum bactericidal concentration (MBC), in vitro stability assays (high-end temperatures, the physiological concentration of cationic salts and proteases), and in vitro safety assays (sheep erythrocyte hemolysis and secondary cell line cytotoxicity) (Supplementary Files S1–S3). The membrane permeabilization effect of Lfcin (17–30) was assessed by flow cytometry, whereas outer and inner membrane permeability of MDR-EAEC strains treated with 1 × and 2 × MIC levels of Lfcin (17–30) was carried out based on the nitrocefin activity as well as the release of cytoplasmic β-galactosidase activity, respectively (Supplementary File S4). Further, Lfcin (17–30) was evaluated for its antibacterial activity against beneficial lactobacilli (L. acidophilus MTCC 10307 and L. rhamnosus MTCC 1408) (Supplementary File S5).
(§2) Besides, the safety aspect of Lfcin (17-30) against beneficial gut lactobacilli was also investigated. […] After incubation at 37 °C for 48 h, the antibacterial effect of AMP on commensal lactobacilli was measured by observing the absorbance at 600 nm (Thermo Scientific Multiskan GO) as well as drawing two 10 µl samples from each well and plating them onto MRS agar plates. […]

[4] = system: L. rhamnosus MTCC 1408; details: 1X MIC, MRS broth, 37°C, 48 h, absorbance 600 nm and plating
Description: as §1, §2

[5] = system: MDR-EAEC strains; details: MDR-EAEC strains (n = 3)
Description: as §1

[6] = system: sheep erythrocytes; details: sheep erythrocytes (10%)
Description: as §1
(§3) To determine the safety of Lfcin (17-30) on host cells, a haemolytic assay using sheep erythrocytes as well as cytotoxicity assay using secondary cell lines were performed with 1X, 2X and 4X MICs of Lfcin (17-30), respectively. In brief, haemolytic assay was performed, wherein the haemolytic activity of Lfcin (17-30) was tested by determining the extent of haemoglobin release from sheep erythrocytes (10%). Further, the safety aspect of Lfcin (17-30) was evaluated on secondary cell line viz., human epithelioma cell line (HEp-2), and murine macrophage cell line (RAW 264.7) by performing MTT [3-(4,5-dimethylthiazole-2-yl)-2,5-diphenyl tetrazolium bromide] assay.

[7] = system: RAW 264.7 cells; details: MTT
Description: as §1, §3

[8] = system: HEp-2 cells; details: MTT
Description: as §1, §3

With FKCRRWQWRMKKLG [Lfcin (17–30)] the survival rate [1] was 100%, the MBEC [2] was 32 µM and the “antimicrobial effect on beneficial lactobacilli” value [3] was “non-significant”. The “antimicrobial effect on beneficial lactobacilli” value [4] was “non-significant”, the MBC ([5]; at least 99.9% killing after 24 h) was 32 µM and the MIC ([5]; micro-broth dilution) was 32 µM. For the same sequence, the “Haemolysis (%)” value ([6]; MIC (1X)) was “non-hemolytic”, the “Haemolysis (%)” value ([6]; MIC (2X)) was “non-hemolytic” and the “cytotoxicity / morphological changes” value ([7]; RAW 264.7, 1× and 2× MIC) was “remarkable morphological changes were not evident”. For the same sequence, the cytotoxicity ([7]; RAW 264.7, 4× MIC) was “moderate to higher cytotoxicity”, the “cytotoxicity / morphological changes” value ([8]; HEp-2, 1× and 2× MIC) was “remarkable morphological changes were not evident” and the cytotoxicity ([8]; HEp-2, 4× MIC) was “moderate to higher cytotoxicity”.
